Results taken from ChEMBL document CHEMBL4400521, “Plasma kallikrein cleaves and inactivates apelin-17: Palmitoyl- and PEG-extended apelin-17 analogs as metabolically stable blood pressure-lowering agents” (Eur J Med Chem, 2019).
Non-standard residues stand in square brackets, D forms with d. Residues, ends and D or L forms follow the SMILES beside them. *: point of attachment. Phe(4-Br) = N[C@@H](Cc1ccc(Br)cc1)C(=O)O; Fmoc = O=C(OCC1c2ccccc2-c2ccccc21)*; PEG6 = NCCOCCOCCOCCOCCOCCOCCC(=O)O; Palmitoyl = CCCCCCCCCCCCCCCC(=O)*; NMeL = CN[C@@H](CC(C)C)C(=O)O; Nle = CCCC[C@H](N)C(=O)O; Aib = CC(C)(N)C(=O)O

How the values were obtained:
Neprilysin = Neprilysin (Homo sapiens, UniProt P08473); experiment: Substrate activity at recombinant human NEP (Tyr52 to Trp750 residues) expressed in HEK293 cells assessed as enzyme-mediated degradation onset time at 1 mM by MALDI-TOF MS analysis; assay type: ADME, cell-based; conditions: hek293, 1000 µM
Plasma kallikrein [1] = target: T1, Plasma kallikrein (Homo sapiens, UniProt P03952); experiment: Substrate activity at recombinant human C-terminal His6-tagged KLKB1 (Pro19 to Ser262 residues) expressed in mammalian expression system assessed as enzyme-mediated degradation onset time at 1 mM by MALDI-TOF MS analysis; assay type: ADME; conditions: 1000 µM
Plasma kallikrein [2] = target: T1, Plasma kallikrein; experiment: (§1) Substrate activity at recombinant human C-terminal His6-tagged KLKB1 (Pro19 to Ser262 residues) expressed in mammalian expression system assessed as compound half life by LC-MS analysis; assay type: ADME
Neprilysin (NEP) = Neprilysin (NEP) (Homo sapiens, UniProt P08473); experiment: Substrate activity at recombinant human NEP (Tyr52 to Trp750 residues) expressed in HEK293 cells assessed as compound half life by LC-MS analysis; assay type: ADME, cell-based
[3] = target: T2, Plasma kallikrein (KLKB1) (Homo sapiens, UniProt P03952); experiment: Substrate activity at KLKB1 in human plasma assessed as compound half life by LC-MS analysis; assay type: ADME, cell-free
Apelin receptor [4] = target: T3, Apelin receptor (Homo sapiens, UniProt P35414); experiment: Activation of recombinant human APJ expressed in rat Chem5 cells co-expressing Galpha15 by Calcium 6-QF dye based fluorescence assay; assay type: functional, cell-based
T3 sequence (P35414 whole entry): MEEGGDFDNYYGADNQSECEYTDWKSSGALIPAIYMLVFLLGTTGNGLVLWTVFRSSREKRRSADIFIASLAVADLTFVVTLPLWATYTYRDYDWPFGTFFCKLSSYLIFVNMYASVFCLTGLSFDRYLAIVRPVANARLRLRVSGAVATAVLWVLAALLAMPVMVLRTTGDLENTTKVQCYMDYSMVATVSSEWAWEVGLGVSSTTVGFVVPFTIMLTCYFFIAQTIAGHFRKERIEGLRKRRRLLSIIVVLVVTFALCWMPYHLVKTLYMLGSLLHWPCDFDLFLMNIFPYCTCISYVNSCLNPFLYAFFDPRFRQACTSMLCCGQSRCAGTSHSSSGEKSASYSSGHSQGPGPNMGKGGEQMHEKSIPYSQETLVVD

Mus musculus = experiment: Blood pressure lowering activity in anesthetized mouse assessed as change in mean arterial blood pressure at 1.4 uM/kg, iv; assay type: functional
[5] = target: T2, Plasma kallikrein (KLKB1); experiment: as §1; assay type: ADME
Plasma kallikrein [6] = target: T1, Plasma kallikrein; experiment: Substrate activity at recombinant human C-terminal His6-tagged KLKB1 (Pro19 to Ser262 residues) expressed in mammalian expression system assessed as Vmax measured after 30 to 60 mins by LC-MS analysis; assay type: ADME
Apelin receptor [7] = target: T4, Apelin receptor (Rattus norvegicus, UniProt Q9JHG3); experiment: Displacement of [125I]-(Glp1,Nle11,[…])apelin-13 from recombinant rat EGFP-fused apelin receptor expressed in CHO cell membrane measured after 3 hrs; assay type: cell membranes
T4 sequence (Q9JHG3 whole entry): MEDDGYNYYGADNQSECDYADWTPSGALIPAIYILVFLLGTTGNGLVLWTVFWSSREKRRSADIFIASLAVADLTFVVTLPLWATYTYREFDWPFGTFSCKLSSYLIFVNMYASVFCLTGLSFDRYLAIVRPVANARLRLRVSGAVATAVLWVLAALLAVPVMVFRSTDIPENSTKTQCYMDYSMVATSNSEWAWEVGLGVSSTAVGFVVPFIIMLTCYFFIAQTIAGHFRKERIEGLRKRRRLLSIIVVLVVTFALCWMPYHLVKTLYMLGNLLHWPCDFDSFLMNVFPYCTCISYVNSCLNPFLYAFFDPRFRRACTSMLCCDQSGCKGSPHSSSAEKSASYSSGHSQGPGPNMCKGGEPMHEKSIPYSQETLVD

[8] = target: T2, Plasma kallikrein (KLKB1); experiment: Substrate activity at recombinant human C-terminal His6-tagged KLKB1 (Pro19 to Ser262 residues) expressed in mammalian expression system assessed as Km measured after 30 to 60 mins by LC-MS analysis; assay type: ADME
Plasma kallikrein [9] = target: T1, Plasma kallikrein; experiment: Substrate activity at recombinant human C-terminal His6-tagged KLKB1 (Pro19 to Ser262 residues) expressed in mammalian expression system assessed as Kcat measured after 30 to 60 mins by LC-MS analysis; assay type: ADME
Plasma kallikrein [10] = target: T1, Plasma kallikrein; experiment: Substrate activity at human KLKB1 assessed as ratio of Kcat to Km by spectrofluorimetric method; assay type: ADME

Sequence of Neprilysin (NEP) (P08473 whole entry): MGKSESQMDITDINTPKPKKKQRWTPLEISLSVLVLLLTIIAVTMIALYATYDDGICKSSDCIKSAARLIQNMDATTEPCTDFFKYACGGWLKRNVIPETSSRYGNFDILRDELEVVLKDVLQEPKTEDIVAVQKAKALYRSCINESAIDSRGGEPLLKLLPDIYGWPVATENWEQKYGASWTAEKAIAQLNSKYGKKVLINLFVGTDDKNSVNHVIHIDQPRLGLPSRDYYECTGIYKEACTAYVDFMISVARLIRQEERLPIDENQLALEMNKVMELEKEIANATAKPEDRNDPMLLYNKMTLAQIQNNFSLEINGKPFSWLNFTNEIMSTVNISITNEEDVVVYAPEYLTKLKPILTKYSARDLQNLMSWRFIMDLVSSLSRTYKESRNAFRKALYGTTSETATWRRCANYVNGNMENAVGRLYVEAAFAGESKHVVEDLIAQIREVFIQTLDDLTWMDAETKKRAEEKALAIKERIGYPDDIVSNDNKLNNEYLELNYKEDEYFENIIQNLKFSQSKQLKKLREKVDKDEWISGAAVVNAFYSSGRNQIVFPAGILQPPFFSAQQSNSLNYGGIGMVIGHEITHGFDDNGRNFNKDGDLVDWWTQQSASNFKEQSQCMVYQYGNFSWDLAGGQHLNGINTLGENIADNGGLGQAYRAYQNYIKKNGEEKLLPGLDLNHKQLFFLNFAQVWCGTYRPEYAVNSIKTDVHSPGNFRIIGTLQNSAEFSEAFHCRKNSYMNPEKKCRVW
Sequence of Neprilysin (P08473 whole entry): as above
T1 sequence (P03952 20-390 limits assumed): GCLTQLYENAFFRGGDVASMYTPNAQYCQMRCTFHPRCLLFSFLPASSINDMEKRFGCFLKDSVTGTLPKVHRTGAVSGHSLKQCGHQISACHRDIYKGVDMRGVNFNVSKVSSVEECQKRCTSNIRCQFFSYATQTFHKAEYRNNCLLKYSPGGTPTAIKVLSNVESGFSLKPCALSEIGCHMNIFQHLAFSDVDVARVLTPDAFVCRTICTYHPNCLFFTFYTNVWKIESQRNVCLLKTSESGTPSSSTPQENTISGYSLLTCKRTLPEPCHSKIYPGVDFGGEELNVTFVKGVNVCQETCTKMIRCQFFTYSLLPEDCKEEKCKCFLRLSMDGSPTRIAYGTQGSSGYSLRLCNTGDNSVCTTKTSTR
T1 sequence (P03952 391-638 limits assumed): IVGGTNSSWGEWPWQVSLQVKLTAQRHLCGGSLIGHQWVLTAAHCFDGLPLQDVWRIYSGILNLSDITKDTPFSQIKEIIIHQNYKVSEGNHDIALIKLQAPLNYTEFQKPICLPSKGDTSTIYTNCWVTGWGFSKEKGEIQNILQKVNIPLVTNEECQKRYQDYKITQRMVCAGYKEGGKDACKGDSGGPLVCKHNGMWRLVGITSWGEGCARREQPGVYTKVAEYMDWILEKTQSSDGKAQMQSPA
T2 sequence (P03952 20-390 limits assumed): as the sequence (P03952 20-390 limits assumed) above
T2 sequence (P03952 391-638 limits assumed): as the sequence (P03952 391-638 limits assumed) above

Compound | Time (Neprilysin) [h] | Time (Plasma kallikrein [1]) [h] | t1/2 (Plasma kallikrein [2]) [h] | half-life (Neprilysin (NEP)) [min] | half-life [3] [min] | EC50 (Apelin receptor [4]) [nM] | Activity (Mus musculus) [mmHg] | half-life [5] [min] | Vmax (Plasma kallikrein [6]) [µmol/min] | IC50 (Apelin receptor [7]) [nM] | Km [8] [nM] | Kcat (Plasma kallikrein [9]) [s⁻¹] | Kcat/Km (Plasma kallikrein [10]) [×10⁴ /Ms]
CCCC[C@H](NC(=O)[C@@H]1CCCN1C(=O)CNC(=O)[C@H](CCCCN)NC(=O)[C@H](Cc1c[nH]cn1)NC(=O)[C@H](CO)NC(=O)[C@H](CC(C)C)NC(=O)[C@H](CCCNC(=N)N)NC(=O)[C@@H]1CCCN1C(=O)[C@H](CCCNC(=N)N)NC(=O)[C@H](CCC(N)=O)NC(=O)[C@H](CCCNC(=N)N)NC(=O)[C@H](CCCNC(=N)N)NC(=O)[C@H](Cc1ccccc1)NC(=O)[C@@H](N)CCCCN)C(=O)NC(C)(C)C(=O)N[C@@H](Cc1ccc(Br)cc1)C(=O)O (H-KFRRQRPRLSHKGP[Nle][Aib][Phe(4-Br)]-OH) | < 1 | < 0.5 | 1 | 42 | 18 | 4.1 | -32 | – | – | – | – | – | –
CCCC[C@H](NC(=O)[C@@H]1CCCN1C(=O)CNC(=O)[C@H](CCCCN)NC(=O)[C@H](Cc1cnc[nH]1)NC(=O)[C@H](CO)NC(=O)[C@H](CC(C)C)NC(=O)[C@H](CCCNC(=N)N)NC(=O)[C@@H]1CCCN1C(=O)[C@H](CCCNC(=N)N)NC(=O)[C@H](CCC(N)=O)NC(=O)[C@H](CCCNC(=N)N)NC(=O)[C@H](CCCNC(=N)N)NC(=O)[C@H](Cc1ccccc1)NC(=O)[C@H](CCCCN)NC(=O)CCOCCOCCOCCOCCOCCOCCNC(=O)OCC1c2ccccc2-c2ccccc21)C(=O)NC(C)(C)C(=O)N[C@@H](Cc1ccc(Br)cc1)C(=O)O ({Fmoc-PEG6}-KFRRQRPRLSHKGP[Nle][Aib][Phe(4-Br)]-OH) | 12 | 1 | – | – | 1080 | 6.3 | -48 | > 1800 | – | – | – | – | –
CCCC[C@H](NC(=O)[C@@H]1CCCN1C(=O)CNC(=O)[C@H](CCCCN)NC(=O)[C@H](Cc1cnc[nH]1)NC(=O)[C@H](CO)NC(=O)[C@H](CC(C)C)NC(=O)[C@H](CCCNC(=N)N)NC(=O)[C@@H]1CCCN1C(=O)[C@H](CCCNC(=N)N)NC(=O)[C@H](CCC(N)=O)NC(=O)[C@@H](N)CCCNC(=N)N)C(=O)NC(C)(C)C(=O)N[C@@H](Cc1ccc(Br)cc1)C(=O)O (H-RQRPRLSHKGP[Nle][Aib][Phe(4-Br)]-OH) | > 36 | – | – | – | – | – | 3 | – | – | – | – | – | –
CCCC[C@H](NC(=O)[C@@H]1CCCN1C(=O)CNC(=O)[C@H](CCCCN)NC(=O)[C@H](Cc1cnc[nH]1)NC(=O)[C@H](CO)NC(=O)[C@H](CC(C)C)N(C)C(=O)[C@H](CCCNC(=N)N)NC(=O)[C@@H]1CCCN1C(=O)[C@H](CCCNC(=N)N)NC(=O)[C@H](CCC(N)=O)NC(=O)[C@H](CCCNC(=N)N)NC(=O)[C@H](CCCNC(=N)N)NC(=O)[C@H](Cc1ccccc1)NC(=O)[C@H](CCCCN)NC(=O)CCOCCOCCOCCOCCOCCOCCNC(=O)OCC1c2ccccc2-c2ccccc21)C(=O)NC(C)(C)C(=O)N[C@@H](Cc1ccc(Br)cc1)C(=O)O ({Fmoc-PEG6}-KFRRQRPR[NMeL]SHKGP[Nle][Aib][Phe(4-Br)]-OH) | > 36 | 2 | – | – | 1620 | 2.5 | -53 | > 1800 | – | – | – | – | –
CCCC[C@H](NC(=O)[C@@H]1CCCN1C(=O)CNC(=O)[C@H](CCCCN)NC(=O)[C@H](Cc1cnc[nH]1)NC(=O)[C@H](CO)NC(=O)[C@H](CC(C)C)N(C)C(=O)[C@H](CCCNC(=N)N)NC(=O)[C@@H]1CCCN1C(=O)[C@H](CCCNC(=N)N)NC(=O)[C@H](CCC(N)=O)NC(=O)[C@@H](N)CCCNC(=N)N)C(=O)NC(C)(C)C(=O)N[C@@H](Cc1ccc(Br)cc1)C(=O)O (H-RQRPR[NMeL]SHKGP[Nle][Aib][Phe(4-Br)]-OH) | – | – | – | – | – | – | -15 | – | – | – | – | – | –
CSCC[C@H](NC(=O)[C@@H]1CCCN1C(=O)CNC(=O)[C@H](CCCCN)NC(=O)[C@H](Cc1cnc[nH]1)NC(=O)[C@H](CO)NC(=O)[C@H](CC(C)C)NC(=O)[C@H](CCCNC(=N)N)NC(=O)[C@@H]1CCCN1C(=O)[C@H](CCCNC(=N)N)NC(=O)[C@H](CCC(N)=O)NC(=O)[C@H](CCCNC(=N)N)NC(=O)[C@H](CCCNC(=N)N)NC(=O)[C@H](Cc1ccccc1)NC(=O)[C@@H](N)CCCCN)C(=O)N1CCC[C@H]1C(=O)N[C@@H](Cc1ccccc1)C(=O)O | < 0.5 | < 0.5 | – | 24 | 1.2 | – | -20 | 24 | 2.947 | 0.025 | – | – | –
CCCCCCCCCCCCCCCC(=O)N[C@@H](CCCCN)C(=O)N[C@@H](Cc1ccccc1)C(=O)N[C@@H](CCCNC(=N)N)C(=O)N[C@@H](CCCNC(=N)N)C(=O)N[C@@H](CCC(N)=O)C(=O)N[C@@H](CCCNC(=N)N)C(=O)N1CCC[C@H]1C(=O)N[C@@H](CCCNC(=N)N)C(=O)N(C)[C@@H](CC(C)C)C(=O)N[C@@H](CO)C(=O)N[C@@H](Cc1cnc[nH]1)C(=O)N[C@@H](CCCCN)C(=O)NCC(=O)N1CCC[C@H]1C(=O)N[C@@H](CCCC)C(=O)NC(C)(C)C(=O)N[C@@H](Cc1ccc(Br)cc1)C(=O)O (Palmitoyl-KFRRQRPR[NMeL]SHKGP[Nle][Aib][Phe(4-Br)]-OH) | > 36 | 2 | – | 126 | 1230 | – | -12 | > 1800 | – | – | – | – | –
H-SLSSMTRVVGG-OH | – | – | – | – | – | – | – | – | – | – | 2400 | 0.001 | 0.4
CCCC[C@H](NC(=O)[C@@H]1CCCN1C(=O)CNC(=O)[C@H](CCCCN)NC(=O)[C@H](Cc1c[nH]cn1)NC(=O)[C@H](CO)NC(=O)[C@H](CC(C)C)N(C)C(=O)[C@H](CCCNC(=N)N)NC(=O)[C@@H]1CCCN1C(=O)[C@H](CCCNC(=N)N)NC(=O)[C@H](CCC(N)=O)NC(=O)[C@H](CCCNC(=N)N)NC(=O)[C@H](CCCNC(=N)N)NC(=O)[C@H](Cc1ccccc1)NC(=O)[C@@H](N)CCCCN)C(=O)NC(C)(C)C(=O)N[C@@H](Cc1ccc(Br)cc1)C(=O)O (H-KFRRQRPR[NMeL]SHKGP[Nle][Aib][Phe(4-Br)]-OH) | – | – | – | 54 | 72 | 4.9 | -36 | > 1800 | – | – | – | – | –
CCCCCCCCCCCCCCCC(=O)N[C@@H](CCCCN)C(=O)N[C@@H](Cc1ccccc1)C(=O)N[C@@H](CCCNC(=N)N)C(=O)N[C@@H](CCCNC(=N)N)C(=O)N[C@@H](CCC(N)=O)C(=O)N[C@@H](CCCNC(=N)N)C(=O)N1CCC[C@H]1C(=O)N[C@@H](CCCNC(=N)N)C(=O)N[C@@H](CC(C)C)C(=O)N[C@@H](CO)C(=O)N[C@@H](Cc1cnc[nH]1)C(=O)N[C@@H](CCCCN)C(=O)NCC(=O)N1CCC[C@H]1C(=O)N[C@@H](CCCC)C(=O)NC(C)(C)C(=O)N[C@@H](Cc1ccc(Br)cc1)C(=O)O (Palmitoyl-KFRRQRPRLSHKGP[Nle][Aib][Phe(4-Br)]-OH) | 1 | 1 | – | 60 | 270 | – | -41 | 90 | – | – | – | – | –
